Assay results from patent US7910600B2, “Therapeutic kinase modulators” (Cylene Pharmaceuticals, Inc., priority 2007, dated 2011).

Legend:
[1] = tested on: PC-3 human prostatic cancer cells; test: Cell proliferation assay (Alamar Blue), PC3; assay type: cell-based; settings: PC3 cell line
Procedure: (§1) A representative cell-proliferation assay protocol using Alamar Blue dye (stored at 4° C., use 20 ul per well) is described hereafter.
(§2) 96-Well Plate Setup and Compound Treatment
(§3) • a. Split and trypsinize cells. • b. Count cells using hemocytometer. • c. Plate 4,000-5,000 cells per well in 100 μl of medium and seed into a 96-well plate according to the following plate layout. Add cell culture medium only to wells B10 to B12. Wells B1 to B9 have cells but no compound added.
(§4) • d. Add 100 μl of 2× drug dilution to each well in a concentration shown in the plate layout above. At the same time, add 100 μl of media into the control wells (wells B10 to B12). Total volume is 200 μl/well. • e. Incubate four (4) days at 37° C., 5% CO2 in a humidified incubator. • f. Add 20 μl Alamar Blue reagent to each well. • g. Incubate for four (4) hours at 37° C., 5% CO2 in a humidified incubator. • h. Record fluorescence at an excitation wavelength of 544 nm and emission wavelength of 590 nm using a microplate reader.
(§5) In the assays, cells are cultured with a test compound for approximately four days, the dye is then added to the cells and fluorescence of […] dye is detected after approximately four hours. Different types of cells can be utilized in the assays (e.g., HCT-116 human colorectal carcinoma cells, PC-3 human prostatic cancer cells and MiaPaca human pancreatic carcinoma cells).

[2] = tested on: MiaPaca human pancreatic carcinoma cells; test: Cell proliferation assay (Alamar Blue), MiaPaCa; assay type: cell-based; settings: MIA PaCa-2, MiaPaCa cell line
Procedure: as §1, §2, §3, §4, §5

recombinant human CK2 = target: T1, recombinant human CK2 (Homo sapiens, UniProt P68400); test: Cell-free CK2 assay; assay type: biochemical; settings: for inhibition at 0.5 µM: read-out: CK2: % inh 500 nM
T1 construct: purchased Upstate
Procedure: Modulatory activity of compounds described herein is assessed in vitro in cell-free CK2 assays. These assays are described hereafter.
Test compounds in aqueous solution are added at a volume of 10 microliters, to a reaction mixture comprising 10 microliters Assay Dilution Buffer (ADB; 20mM MOPS, pH 7.2, 25 mM beta-glycerolphosphate, 5 mM EGTA, 1 mM sodium orthovanadate and 1 mM dithiothreitol), 10 microliters of substrate peptide (RRRDDDSDDD (SEQ ID NO:4), dissolved in ADB at a concentration of 1 mM), 10 microliters of recombinant human CK2 (25 ng dissolved in ADB; Upstate). Reactions are initiated by the addition of 10 microliters of ATP Solution (90% 75 mM MgC12, 75 micromolar ATP dissolved in ADB; 10% [γ-^33P]ATP (stock 1 mCi/100 μl; 3000 Ci/mmol (Perkin Elmer) and maintained for 10 minutes at 30 degrees C. The reactions are quenched with 100 microliters of 0.75% phosphoric acid, then transferred to and filtered through a phosphocellulose filter plate (Millipore). After washing each well 5 times with 0.75% phosphoric acid, the plate is dried under vacuum for 5 min and, following the addition of 15 ul of scintillation fluid to each well, the residual radioactivity is measured using a Wallac […].

K562 = test: Cell proliferation assay (Alamar Blue), K562; assay type: cell-based; settings: Homo sapiens; K562 cell line
Procedure: as §1, §2, §3, §4, §5

MV-4-11 = test: Cell proliferation assay (Alamar Blue), MV-4-11; assay type: cell-based; settings: Homo sapiens, MV4-11; MV-4-11 cell line
Procedure: as §1, §2, §3, §4, §5

[3] = tested on: HCT-116 human colorectal carcinoma cells; test: Cell proliferation assay (Alamar Blue), HCT-116; assay type: cell-based; settings: HCT-116 cell line
Procedure: as §1, §2, §3, §4, §5

BxPC3 = test: Cell proliferation assay (Alamar Blue), BxPC3; assay type: cell-based; settings: Homo sapiens, BXPC-3; BxPC3 cell line; read-out: Bx-PC3
Procedure: as §1, §2, §3, §4, §5

MDA-MB231 = test: Cell proliferation assay (Alamar Blue), MDA-MB231; assay type: cell-based; settings: Homo sapiens, MDA-MB-231; MDA-MB231 cell line
Procedure: as §1, §2, §3, §4, §5

T1 sequence (P68400 whole entry): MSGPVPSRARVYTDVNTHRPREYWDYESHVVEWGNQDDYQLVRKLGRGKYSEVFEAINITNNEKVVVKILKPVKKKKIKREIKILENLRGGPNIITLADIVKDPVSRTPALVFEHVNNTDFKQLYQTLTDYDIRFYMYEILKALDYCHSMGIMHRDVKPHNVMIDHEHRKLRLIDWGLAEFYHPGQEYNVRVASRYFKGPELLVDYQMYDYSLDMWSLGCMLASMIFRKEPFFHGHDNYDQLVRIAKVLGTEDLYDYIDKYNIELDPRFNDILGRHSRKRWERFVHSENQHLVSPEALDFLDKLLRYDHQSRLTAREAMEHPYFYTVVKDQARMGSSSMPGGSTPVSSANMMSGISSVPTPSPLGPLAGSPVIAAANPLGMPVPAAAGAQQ
T1 sequence (P67870 whole entry partner): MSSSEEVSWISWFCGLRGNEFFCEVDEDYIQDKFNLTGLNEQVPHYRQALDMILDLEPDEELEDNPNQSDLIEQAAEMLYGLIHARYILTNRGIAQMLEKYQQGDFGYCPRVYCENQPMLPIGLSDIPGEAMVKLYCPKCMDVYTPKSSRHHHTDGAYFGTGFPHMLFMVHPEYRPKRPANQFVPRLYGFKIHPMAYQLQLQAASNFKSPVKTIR

Structure (SMILES): CN1CCN(C(=O)c2ccc3c(c2)nc(-c2cccc(N)c2)c2ccncc23)CC1
- IC50 [1]: > 10 µM
- IC50 [2]: > 10 µM
- inhibition at 0.5 µM (recombinant human CK2): 19%
- IC50 (K562): > 10 µM
- IC50 (MV-4-11): > 10 µM
- IC50 [3]: > 10 µM

Structure (SMILES): CC(=O)Nc1cccc(-c2nc3cc(C(=O)O)ccc3c3cnccc23)c1
- IC50 (BxPC3): > 10 µM
- IC50 [2]: > 10 µM
- IC50 (recombinant human CK2): 0.042 µM
- inhibition at 0.5 µM (recombinant human CK2): 93%
- IC50 (K562): > 10 µM
- IC50 (MV-4-11): > 10 µM
- IC50 [3]: > 10 µM
- IC50 (MDA-MB231): > 10 µM

Structure (SMILES): CC(=O)Nc1cccc(-c2nc3cc(C(=O)N4CCCN(C)CC4)ccc3c3cnccc23)c1
- inhibition at 0.5 µM (recombinant human CK2): 30%
- IC50 [3]: > 10 µM

Structure (SMILES): O=C(O)c1ccc2c(c1)nc(-c1ccc(F)cc1)c1ccncc12
- IC50 [1]: > 10 µM
- IC50 [2]: > 30 µM
- IC50 (recombinant human CK2): 0.033 µM
- inhibition at 0.5 µM (recombinant human CK2): 98%
- IC50 (K562): 1 µM
- IC50 (MV-4-11): 7 µM
- IC50 [3]: > 10 µM

Structure (SMILES): COC(=O)c1ccc2c(c1)nc(-c1cnn(C)c1)c1nc(S(C)(=O)=O)ncc12
- inhibition at 0.5 µM (recombinant human CK2): 11%
- IC50 [3]: 0.9 µM

Structure (SMILES): CN(C)C(=O)c1ccc2c(c1)nc(-c1ccccc1)c1ccncc12
- inhibition at 0.5 µM (recombinant human CK2): 0%
- IC50 (K562): > 10 µM
- IC50 (MV-4-11): > 10 µM
- IC50 [3]: > 10 µM

Structure (SMILES): Fc1ccc2c(c1)nc(-c1cccc(OC(F)(F)F)c1)c1ccncc12
- inhibition at 0.5 µM (recombinant human CK2): -35%

Structure (SMILES): CC(=O)Nc1cccc(-c2nc3cc(C(=O)NN4CCOCC4)ccc3c3cnccc23)c1
- inhibition at 0.5 µM (recombinant human CK2): 19%
- IC50 [3]: > 10 µM

Structure (SMILES): CN1CCCN(C(=O)c2ccc3c(c2)nc(-c2ccccc2)c2ccncc23)CC1
- inhibition at 0.5 µM (recombinant human CK2): -15%
- IC50 (K562): > 10 µM
- IC50 (MV-4-11): > 10 µM
- IC50 [3]: > 10 µM

Structure (SMILES): O=C(O)c1ccc2c(c1)nc(-c1ccccc1)c1ccncc12 [5-phenylbenzo[c][2,6]naphthyridine-8-carboxylic acid]
- IC50 (BxPC3): > 10 µM
- IC50 [2]: > 10 µM
- IC50 (recombinant human CK2): 0.013 µM
- inhibition at 0.5 µM (recombinant human CK2): 97%
- IC50 (K562): > 10 µM
- IC50 (MV-4-11): 8.1 µM
- IC50 [3]: > 10 µM
- IC50 (MDA-MB231): > 10 µM

Structure (SMILES): CC(=O)Nc1cccc(-c2nc3cc(C(=O)NCC4CCCCN4C)ccc3c3cnccc23)c1 (stereo not drawn)
- inhibition at 0.5 µM (recombinant human CK2): 40%
- IC50 [3]: > 10 µM

Structure (SMILES): Cc1cscc1-c1nc2cc(C(=O)O)ccc2c2cnccc12
- inhibition at 0.5 µM (recombinant human CK2): 87%

Structure (SMILES): CN(C)C(=O)c1ccc2c(c1)nc(-c1cnn(C)c1)c1ccncc12
- inhibition at 0.5 µM (recombinant human CK2): -13%
- IC50 (K562): > 10 µM
- IC50 (MV-4-11): > 10 µM
- IC50 [3]: > 10 µM

Structure (SMILES): COC(=O)c1ccc2c(c1)nc(-c1ccccc1)c1nc(SC)ncc12 [methyl 3-(methylthio)-5-phenylpyrimido[4,5-c]quinoline-8-carboxylate]
- inhibition at 0.5 µM (recombinant human CK2): -26%
- IC50 [3]: 2 µM

Structure (SMILES): CC(=O)Nc1cccc(-c2nc3cc(C(=O)N4CCN(C)CC4)ccc3c3cnccc23)c1
- inhibition at 0.5 µM (recombinant human CK2): 6%
- IC50 [3]: > 10 µM

Structure (SMILES): COC(=O)c1ccc2c(c1)nc(-c1c(C)noc1C)c1ccncc12
- inhibition at 0.5 µM (recombinant human CK2): -5%

Structure (SMILES): Cc1noc(C)c1-c1nc2cc(C(=O)O)ccc2c2cnccc12
- inhibition at 0.5 µM (recombinant human CK2): 52%

Structure (SMILES): O=C(NC1CC1)c1ccc2c(c1)nc(-c1ccccc1)c1ccncc12
- inhibition at 0.5 µM (recombinant human CK2): -9%
- IC50 (K562): > 10 µM
- IC50 (MV-4-11): > 10 µM
- IC50 [3]: > 10 µM

Structure (SMILES): N#Cc1cccc(-c2nc3cc(C(=O)O)ccc3c3cnccc23)c1
- IC50 [1]: > 10 µM
- IC50 [2]: > 10 µM
- IC50 (recombinant human CK2): 0.045 µM
- inhibition at 0.5 µM (recombinant human CK2): 98%
- IC50 [3]: > 10 µM

Structure (SMILES): CC(=O)Nc1cccc(-c2nc3cc(C(=O)NCc4cnc(C)cn4)ccc3c3cnccc23)c1
- inhibition at 0.5 µM (recombinant human CK2): -6%
- IC50 [3]: > 10 µM

Structure (SMILES): Nc1cccc(-c2nc3cc(C(=O)NN4CCOCC4)ccc3c3cnccc23)c1
- inhibition at 0.5 µM (recombinant human CK2): -28%
- IC50 [3]: > 10 µM

Structure (SMILES): Cc1cnc(CNC(=O)c2ccc3c(c2)nc(-c2cccc(N)c2)c2ccncc23)cn1
- inhibition at 0.5 µM (recombinant human CK2): -24%
- IC50 [3]: > 10 µM
